Biological target: MAPK14 (UniProt Q16539)
Test: Inhibition of MAPK14 Kinase Activity

Chain of MAPK14 (Q16539 whole entry, looked up): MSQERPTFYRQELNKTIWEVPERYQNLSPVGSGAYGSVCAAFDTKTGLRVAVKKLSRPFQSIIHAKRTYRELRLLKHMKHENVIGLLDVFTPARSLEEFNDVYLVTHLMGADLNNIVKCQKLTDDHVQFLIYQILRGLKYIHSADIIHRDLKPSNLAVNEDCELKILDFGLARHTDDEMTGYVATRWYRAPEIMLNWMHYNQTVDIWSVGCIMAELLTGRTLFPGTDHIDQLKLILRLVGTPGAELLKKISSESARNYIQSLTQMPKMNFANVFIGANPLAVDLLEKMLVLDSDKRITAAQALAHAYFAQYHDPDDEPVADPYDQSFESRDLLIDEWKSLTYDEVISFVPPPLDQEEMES

Structure (SMILES)	IC50 [µM]
Cc1c(F)cc(C(=O)NC2CC2)cc1-c1ccc2c(cnn2S(=O)(=O)c2ccc(F)cc2F)c1	< 10
Cc1c(F)cc(C(=O)NC2CC2)cc1-c1ccc2c(cnn2S(=O)(=O)c2cc(F)cc(F)c2)c1	< 10
Cc1ccc(F)cc1S(=O)(=O)n1ncc2cc(-c3cc(C(=O)NC4CC4)cc(F)c3C)ccc21	< 10
Cc1c(F)cc(C(=O)NC2CC2)cc1-c1ccc2c(cnn2S(=O)(=O)/C=C/c2ccccc2)c1	< 10
Cc1c(F)cc(C(=O)NC2CC2)cc1-c1ccc2c(cnn2S(=O)(=O)c2cccs2)c1	< 10
COc1ccc(CNC(=O)Cn2ncc3cc(-c4cc(C(=O)NC5CC5)cc(F)c4C)ccc32)cc1	< 10
Cc1ccc(C(=O)NC2CC2)cc1-c1ccc2c(cnn2CC(=O)NCc2ccccc2)c1	< 10
Cc1c(F)cc(C(=O)NC2CC2)cc1-c1ccc2c(cnn2CC(=O)NCc2ccccc2)c1	< 10
Cc1ccc(C(=O)NC2CC2)cc1-c1ccc2c(cnn2S(=O)(=O)C(C)C)c1	< 10
Cc1ccc(C(=O)NC2CC2)cc1-c1ccc2c(cnn2S(=O)(=O)c2cn(C)cn2)c1	< 10
Cc1ccc(C(=O)NC2CC2)cc1-c1ccc2c(cnn2S(=O)(=O)c2c(C)nn(C)c2C)c1	< 10
Cc1c(F)cc(C(=O)NC2CC2)cc1-c1ccc2c(cnn2S(=O)(=O)c2ccc3c(c2)CCO3)c1	< 10
CCCS(=O)(=O)n1ncc2cc(-c3cc(C(=O)NC4CC4)ccc3C)ccc21	< 10
COc1cccc(S(=O)(=O)n2ncc3cc(-c4cc(C(=O)NC5CC5)cc(F)c4C)ccc32)c1	< 10
CCS(=O)(=O)n1ncc2cc(-c3cc(C(=O)NC4CC4)cc(F)c3C)ccc21	< 10
COc1ccc(CNC(=O)Cn2ncc3cc(-c4cc(C(=O)NC5CC5)ccc4C)ccc32)cc1	< 10
Cc1c(F)cc(C(=O)NC2CC2)cc1-c1ccc2c(cnn2S(=O)(=O)c2ccc(C(C)C)cc2)c1	< 10
Cc1c(F)cc(C(=O)NC2CC2)cc1-c1ccc2c(cnn2S(=O)(=O)c2ccc(F)c(F)c2)c1	< 10
CCc1ccc(S(=O)(=O)n2ncc3cc(-c4cc(C(=O)NC5CC5)cc(F)c4C)ccc32)cc1	< 10
Cc1c(F)cc(C(=O)NC2CC2)cc1-c1ccc2c(cnn2S(=O)(=O)C(C)C)c1	< 10
CCCCS(=O)(=O)n1ncc2cc(-c3cc(C(=O)NC4CC4)cc(F)c3C)ccc21	< 10
Cc1ccc(C(=O)NC2CC2)cc1-c1ccc2c(cnn2S(=O)(=O)c2ccccc2)c1	< 10
Cc1noc(C)c1S(=O)(=O)n1ncc2cc(-c3cc(C(=O)NC4CC4)cc(F)c3C)ccc21	< 10

Structure (SMILES)	IC50 [µM]
Cc1c(F)cc(C(=O)NC2CC2)cc1-c1ccc2c(S(C)(=O)=O)n[nH]c2c1	< 10
COc1cccc(S(=O)(=O)n2ncc3cc(-c4cc(C(=O)NC5CC5)ccc4C)ccc32)c1	< 10
Cc1c(F)cc(C(=O)NC2CC2)cc1-c1ccc2c(cnn2S(=O)(=O)c2ccccc2F)c1	< 10
Cc1ccc(C(=O)NC2CC2)cc1-c1ccc2c(cnn2C2CCN(C(=O)OC(C)(C)C)CC2)c1	< 10
Cc1ccc(C(=O)NC2CC2)cc1-c1ccc2c(cnn2C2CCNCC2)c1	< 10
Cc1c(F)cc(C(=O)NC2CC2)cc1-c1ccc2c(cnn2S(=O)(=O)Cc2ccccc2)c1	< 10
Cc1ccc(C(=O)NC2CC2)cc1-c1ccc2c(cnn2S(=O)(=O)c2cccc3nonc23)c1	< 10
Cc1ccc(C(=O)NC2CC2)cc1-c1ccc2c(S(=O)(=O)c3ccc(F)cc3)n[nH]c2c1	< 10
Cc1c(F)cc(C(=O)NC2CC2)cc1-c1ccc2c(cnn2S(=O)(=O)c2cccc(F)c2)c1	< 10
Cc1c(F)cc(C(=O)NC2CC2)cc1-c1ccc2[nH]nc(C)c2c1	< 10
Cc1ccc(S(=O)(=O)n2ncc3cc(-c4cc(C(=O)NC5CC5)cc(F)c4C)ccc32)cc1	< 10
Cc1ccc(C(=O)NC2CC2)cc1-c1ccc2c(cnn2S(=O)(=O)c2ccc(-c3ccon3)s2)c1	< 10
CNC(=O)c1ccc(CNC(=O)Cn2ncc3cc(-c4cc(C(=O)NC5CC5)cc(F)c4C)ccc32)cc1	< 10
Cc1ccc(C(=O)NC2CC2)cc1-c1ccc2c(cnn2S(=O)(=O)Cc2ccccc2)c1	< 10
Cc1ccc(C(=O)NC2CC2)cc1-c1ccc2c(cnn2S(C)(=O)=O)c1	< 10
Cc1c(F)cc(C(=O)NC2CC2)cc1-c1ccc2c(cnn2S(=O)(=O)c2cccc(Cl)c2)c1	< 10
Cc1ccc(CNC(=O)Cn2ncc3cc(-c4cc(C(=O)NC5CC5)cc(F)c4C)ccc32)cc1	< 10
Cc1ccc(C(=O)NC2CC2)cc1-c1ccc2c(cnn2S(=O)(=O)c2cccc(F)c2)c1	< 10
Cc1ccc(C(=O)NC2CC2)cc1-c1ccc2c(cnn2S(=O)(=O)c2ccccc2[N+](=O)[O-])c1	< 10
Cc1c(F)cc(C(=O)NC2CC2)cc1-c1ccc2c(cnn2S(=O)(=O)c2ccsc2)c1	< 10
Cc1c(F)cc(C(=O)NC2CC2)cc1-c1ccc2c(cnn2S(=O)(=O)c2ccc(Cl)cc2)c1	< 10
Cc1c(F)cc(C(=O)NC2CC2)cc1-c1ccc2c(cnn2S(C)(=O)=O)c1	< 10
Cc1ccc(C(=O)NC2CC2)cc1-c1ccc2c(cnn2S(=O)(=O)CC(F)(F)F)c1	< 10

The remaining lines, values ahead:

IC50 [µM]	Structure (SMILES)
< 10	Cc1ccc(C(=O)NC2CC2)cc1-c1ccc2c(CC(=O)N3CCOCC3)noc2c1
< 10	Cc1c(F)cc(C(=O)NC2CC2)cc1-c1ccc2c(NC3CC3)noc2c1
< 10	Cc1ccc(C(=O)NC2CC2)cc1-c1ccc2c(CC(=O)NCCO)noc2c1
< 10	CCNC(=O)Cc1noc2cc(-c3cc(C(=O)NC4CC4)ccc3C)ccc12
< 10	Cc1ccc(C(=O)NC2CC2)cc1-c1ccc2cn[nH]c2c1
< 10	Cc1ccc(C(=O)NC2CC2)cc1-c1ccc2c(CC(=O)N3CCCCC3)noc2c1
< 10	Cc1ccc(NC(=O)c2ccsc2)cc1-c1ccc2c(C)noc2c1
< 10	CCCNC(=O)c1noc2cc(-c3cc(C(=O)NC4CC4)cc(F)c3C)ccc12
< 10	Cc1ccc(C(=O)Nc2nccs2)cc1-c1ccc2c(C)noc2c1
< 10	Cc1ccc(C(=O)NC2CC2)cc1-c1ccc2c(C)noc2c1
< 10	Cc1ccc(C(=O)NC2CC2)cc1-c1ccc2c(CC(=O)N3CCNCC3)noc2c1
< 10	COc1cccc(CNC(=O)Cc2noc3cc(-c4cc(C(=O)NC5CC5)ccc4C)ccc23)c1
< 10	Cc1ccc(C(=O)NC2CC2)cc1-c1ccc2c(CN3CCCC3)noc2c1
< 10	Cc1ccc(C(=O)Nc2cccc(N3CCOCC3)c2)cc1-c1ccc2c(C)noc2c1
< 10	Cc1ccc(C(=O)NC2CC2)cc1-c1ccc2c(CNC(CO)CO)noc2c1
< 10	Cc1ccc(C(=O)NC2CC2)cc1-c1ccc2c(N)noc2c1
< 10	Cc1ccc(NC(=O)c2ccnc(N3CCCC3)c2)cc1-c1ccc2c(C3CCNCC3)noc2c1
< 10	CNC(=O)c1noc2cc(-c3cc(C(=O)NC4CC4)cc(F)c3C)ccc12
< 10	Cc1ccc(C(=O)Nc2nccs2)cc1-c1ccc2c(C3CCNCC3)noc2c1
< 10	Cc1ccc(C(=O)NC2CC2)cc1-c1ccc2c(N3CCNCC3)noc2c1
< 10	Cc1ccc(NC(=O)c2ccoc2)cc1-c1ccc2c(C)noc2c1
< 10	Cc1ccc(C(=O)Nc2cccc(N3CCOCC3)c2)cc1-c1ccc2c(C3CCNCC3)noc2c1
< 10	CNC(=O)Cc1noc2cc(-c3cc(C(=O)NC4CC4)ccc3C)ccc12
